Assay results published in PubChem BioAssay (NCI).
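Tested at 5 concentrations; 48 h exposure; 96-well plates; endpoints linearly interpolated, else capped at highest concentration. GI50: concentration for 50% inhibition of growth. Definition used: TGI = concentration required for complete inhibition of growth.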

Columns and labels:
Assay in all cases: NCI-60 cell line screen, 48 h
IGROV1 ovarian = tested on: IGROV1 ovarian
HCC-2998 colon = tested on: HCC-2998 colon
UO-31 renal = tested on: UO-31 renal
SNB-19 CNS = tested on: SNB-19 CNS
NCI-H23 lung = tested on: NCI-H23 lung
HL-60(TB) leukemia = tested on: HL-60(TB) leukemia
K-562 leukemia = tested on: K-562 leukemia
NCI-H460 lung = tested on: NCI-H460 lung
A498 renal = tested on: A498 renal
SF-539 CNS = tested on: SF-539 CNS
MOLT-4 leukemia = tested on: MOLT-4 leukemia
M14 melanoma = tested on: M14 melanoma
EKVX NSCLC = tested on: EKVX NSCLC
U251 CNS = tested on: U251 CNS
BT-549 breast = tested on: BT-549 breast
A549 NSCLC = tested on: A549 NSCLC
OVCAR-8 ovarian = tested on: OVCAR-8 ovarian
SF-268 CNS = tested on: SF-268 CNS
OVCAR-5 ovarian = tested on: OVCAR-5 ovarian
HCT-116 colon = tested on: HCT-116 colon
MALME-3M melanoma = tested on: MALME-3M melanoma
HS 578T breast = tested on: HS 578T breast
SW-620 colon = tested on: SW-620 colon
DU-145 prostate = tested on: DU-145 prostate
KM12 colon = tested on: KM12 colon
UACC-257 melanoma = tested on: UACC-257 melanoma
HT29 colon = tested on: HT29 colon
SK-MEL-2 melanoma = tested on: SK-MEL-2 melanoma
MDA-MB-435 = tested on: MDA-MB-435
SNB-75 CNS = tested on: SNB-75 CNS
NCI-H226 lung = tested on: NCI-H226 lung
RXF 393 renal = tested on: RXF 393 renal
NCI/ADR-RES ovarian = tested on: NCI/ADR-RES ovarian
HCT-15 colon = tested on: HCT-15 colon
MDA-MB-231 breast = tested on: MDA-MB-231 breast
TK-10 renal = tested on: TK-10 renal
SK-MEL-28 melanoma = tested on: SK-MEL-28 melanoma
CAKI-1 renal = tested on: CAKI-1 renal
SK-OV-3 ovarian = tested on: SK-OV-3 ovarian
ACHN renal = tested on: ACHN renal
NCI-H522 lung = tested on: NCI-H522 lung
COLO 205 colon = tested on: COLO 205 colon
CCRF-CEM leukemia = tested on: CCRF-CEM leukemia
SF-295 CNS = tested on: SF-295 CNS
HOP-62 NSCLC = tested on: HOP-62 NSCLC
RPMI-8226 leukemia = tested on: RPMI-8226 leukemia
OVCAR-4 ovarian = tested on: OVCAR-4 ovarian
SK-MEL-5 melanoma = tested on: SK-MEL-5 melanoma
PC-3 prostate = tested on: PC-3 prostate
786-0 renal = tested on: 786-0 renal
UACC-62 melanoma = tested on: UACC-62 melanoma
OVCAR-3 ovarian = tested on: OVCAR-3 ovarian
HOP-92 NSCLC = tested on: HOP-92 NSCLC
SN12C renal = tested on: SN12C renal
LOX IMVI melanoma = tested on: LOX IMVI melanoma
MCF7 breast = tested on: MCF7 breast
SR leukemia = tested on: SR leukemia

CC(C)Cc1ccc(C(C)C(=O)NCc2ccc(Cn3c(=O)sn(CCCCl)c3=O)cc2)cc1 (configuration not stated)
GI50 (IGROV1 ovarian): 744 nM
TGI (IGROV1 ovarian): 2210 nM
GI50 (HCC-2998 colon): 1850 nM
TGI (HCC-2998 colon): 3370 nM
GI50 (UO-31 renal): 672 nM
TGI (UO-31 renal): 2080 nM
GI50 (SNB-19 CNS): 1710 nM
TGI (SNB-19 CNS): 3300 nM
GI50 (NCI-H23 lung): 1590 nM
TGI (NCI-H23 lung): 3260 nM
GI50 (HL-60(TB) leukemia): 3820 nM
TGI (HL-60(TB) leukemia): > 100000 nM
GI50 (K-562 leukemia): 412 nM
TGI (K-562 leukemia): > 100000 nM
GI50 (NCI-H460 lung): 1650 nM
TGI (NCI-H460 lung): 3340 nM
GI50 (A498 renal): 1260 nM
TGI (A498 renal): 2870 nM
GI50 (SF-539 CNS): 1480 nM
TGI (SF-539 CNS): 2810 nM
GI50 (MOLT-4 leukemia): 962 nM
TGI (MOLT-4 leukemia): > 100000 nM
GI50 (M14 melanoma): 621 nM
TGI (M14 melanoma): 2200 nM
GI50 (EKVX NSCLC): 1470 nM
TGI (EKVX NSCLC): 2780 nM
GI50 (U251 CNS): 1630 nM
TGI (U251 CNS): 3010 nM
GI50 (BT-549 breast): 1090 nM
TGI (BT-549 breast): 2700 nM
GI50 (A549 NSCLC): 1790 nM
TGI (A549 NSCLC): 3720 nM
GI50 (OVCAR-8 ovarian): 1210 nM
TGI (OVCAR-8 ovarian): 2870 nM
GI50 (SF-268 CNS): 1600 nM
TGI (SF-268 CNS): 3020 nM
GI50 (OVCAR-5 ovarian): 1750 nM
TGI (OVCAR-5 ovarian): 3290 nM
GI50 (HCT-116 colon): 235 nM
TGI (HCT-116 colon): 783 nM
GI50 (MALME-3M melanoma): 1560 nM
TGI (MALME-3M melanoma): 2970 nM
GI50 (HS 578T breast): 1820 nM
TGI (HS 578T breast): 4900 nM
GI50 (SW-620 colon): 497 nM
TGI (SW-620 colon): 1900 nM
GI50 (DU-145 prostate): 1460 nM
TGI (DU-145 prostate): 2820 nM
GI50 (KM12 colon): 1760 nM
TGI (KM12 colon): 3450 nM
GI50 (UACC-257 melanoma): 1560 nM
TGI (UACC-257 melanoma): 2980 nM
GI50 (HT29 colon): 1600 nM
TGI (HT29 colon): 2940 nM
GI50 (SK-MEL-2 melanoma): 1430 nM
TGI (SK-MEL-2 melanoma): 3000 nM
GI50 (MDA-MB-435): 1140 nM
TGI (MDA-MB-435): 2440 nM
GI50 (SNB-75 CNS): 445 nM
TGI (SNB-75 CNS): 2040 nM
GI50 (NCI-H226 lung): 1430 nM
TGI (NCI-H226 lung): 3130 nM
GI50 (RXF 393 renal): 1170 nM
TGI (RXF 393 renal): 2410 nM
GI50 (NCI/ADR-RES ovarian): 2110 nM
TGI (NCI/ADR-RES ovarian): 8250 nM
GI50 (HCT-15 colon): 511 nM
TGI (HCT-15 colon): 2050 nM
GI50 (MDA-MB-231 breast): 1370 nM
TGI (MDA-MB-231 breast): 2720 nM
GI50 (TK-10 renal): 493 nM
TGI (TK-10 renal): 1850 nM
GI50 (SK-MEL-28 melanoma): 1650 nM
TGI (SK-MEL-28 melanoma): 3020 nM
GI50 (CAKI-1 renal): 619 nM
TGI (CAKI-1 renal): 2080 nM
GI50 (SK-OV-3 ovarian): 6130 nM
TGI (SK-OV-3 ovarian): 20000 nM
GI50 (ACHN renal): 746 nM
TGI (ACHN renal): 2020 nM
GI50 (NCI-H522 lung): 458 nM
TGI (NCI-H522 lung): 2010 nM
GI50 (COLO 205 colon): 1120 nM
TGI (COLO 205 colon): 2760 nM
GI50 (CCRF-CEM leukemia): 361 nM
TGI (CCRF-CEM leukemia): > 100000 nM
GI50 (SF-295 CNS): 4900 nM
TGI (SF-295 CNS): 17500 nM
GI50 (HOP-62 NSCLC): 1280 nM
TGI (HOP-62 NSCLC): 2730 nM
GI50 (RPMI-8226 leukemia): 375 nM
TGI (RPMI-8226 leukemia): 6180 nM
GI50 (OVCAR-4 ovarian): 1530 nM
TGI (OVCAR-4 ovarian): 3020 nM
GI50 (SK-MEL-5 melanoma): 1630 nM
TGI (SK-MEL-5 melanoma): 2990 nM
GI50 (PC-3 prostate): 677 nM
TGI (PC-3 prostate): 2270 nM
GI50 (786-0 renal): 551 nM
TGI (786-0 renal): 1980 nM
GI50 (UACC-62 melanoma): 1420 nM
TGI (UACC-62 melanoma): 2760 nM
GI50 (OVCAR-3 ovarian): 738 nM
TGI (OVCAR-3 ovarian): 2030 nM
GI50 (HOP-92 NSCLC): 814 nM
TGI (HOP-92 NSCLC): 2260 nM
GI50 (SN12C renal): 1340 nM
TGI (SN12C renal): 2650 nM
GI50 (LOX IMVI melanoma): 1180 nM
TGI (LOX IMVI melanoma): 2520 nM

COc1cc(/C=C2\CCc3ccccc3C2=O)ccc1O
TGI (IGROV1 ovarian): > 100000 nM
TGI (HCC-2998 colon): 33700 nM
TGI (UO-31 renal): 27400 nM
TGI (SNB-19 CNS): 30200 nM
TGI (MCF7 breast): 23200 nM
TGI (NCI-H23 lung): 52300 nM
TGI (HL-60(TB) leukemia): 30100 nM
TGI (K-562 leukemia): 79700 nM
TGI (NCI-H460 lung): 34400 nM
TGI (SF-539 CNS): 30400 nM
TGI (MOLT-4 leukemia): 69100 nM
TGI (M14 melanoma): 33500 nM
TGI (EKVX NSCLC): 59000 nM
TGI (U251 CNS): 31700 nM
TGI (BT-549 breast): 37700 nM
TGI (A549 NSCLC): 53200 nM
TGI (OVCAR-8 ovarian): 37100 nM
TGI (SF-268 CNS): 74100 nM
TGI (OVCAR-5 ovarian): 27200 nM
TGI (SR leukemia): 48000 nM
TGI (HS 578T breast): > 100000 nM
TGI (SW-620 colon): 33900 nM
TGI (KM12 colon): 30800 nM
TGI (HT29 colon): 32700 nM
TGI (SNB-75 CNS): 79100 nM
TGI (RXF 393 renal): 25000 nM
TGI (NCI/ADR-RES ovarian): 78800 nM
TGI (HCT-15 colon): 75700 nM
TGI (TK-10 renal): 37800 nM
TGI (SK-MEL-28 melanoma): 38800 nM
TGI (CAKI-1 renal): > 100000 nM
TGI (SK-OV-3 ovarian): 91500 nM
TGI (ACHN renal): 58100 nM
TGI (CCRF-CEM leukemia): > 100000 nM
TGI (RPMI-8226 leukemia): 50200 nM
TGI (OVCAR-4 ovarian): 44800 nM
TGI (SK-MEL-5 melanoma): 35300 nM
TGI (786-0 renal): 27300 nM
TGI (OVCAR-3 ovarian): 36100 nM
TGI (HOP-92 NSCLC): 45200 nM
TGI (SN12C renal): 49700 nM
TGI (LOX IMVI melanoma): 32800 nM
